# How the values were obtained:
# [1] = tested on: PR Ser294 phosphorylation; test: Breast tumor explants, phospho-Ser294 PR IHC; assay type: cell-based, human; details: progesterone 10 nM, 2 hours, IHC, n=6
# From the text: De-identified breast tumor samples were collected after surgery and immediately processed for tissue explant maintenance on sponges in cell culture medium, as previously described (Ravindranathan et al. Nature Communications 2013, 4:1923). Samples were derived from six patients pathologically diagnosed with invasive ductal carcinoma (IDC) and scored positive for ER (94-100%) and PR (1-100%), and negative for HER2 expression. […] In additional experiments, six explants were similarly treated with estrogen or progesterone (2 hours) but in combination with 1 uM U0126 (to inhibit ERKs 1/2) and phospho-Ser294 PR levels were measured by IHC.
# ER+ luminal tumors were maintained as explants as above and instead treated with either vehicle or progesterone (10 nM) for 2 hours in the presence or absence of the MEK1/2 inhibitor U0126 (1 nM) prior to IHC staining using specific antibodies for total and phospho-Ser294 PR as well as ER-alpha and phospho-ERK1/2 (n=6; see Methods).
# [2] = tested on: human breast tumor tissue (tumor explants); test: Breast tumor explants cultured ex vivo, Ki-67 IHC (proliferation); assay type: cell-based; details: ER+/PR+ tumor explants, 48 hours; progesterone 10 nM; estrogen 1 nM and 10 nM; n=6
# From the text: De-identified breast tumor samples were collected after surgery and immediately processed for tissue explant maintenance on sponges in cell culture medium, as previously described (Ravindranathan et al. Nature Communications 2013, 4:1923). Samples were derived from six patients pathologically diagnosed with invasive ductal carcinoma (IDC) and scored positive for ER (94-100%) and PR (1-100%), and negative for HER2 expression. Tissue explants were starved in media containing hormone-stripped FBS for 24 hours, and then treated for 48 hours with (1) vehicle, (2) 1 nM estradiol, (3) 10 nM estradiol, (4) 1 nM progesterone, (5) 10 nM progesterone prior to processing for quantitation of Ki-67 levels by IHC. Across treatment conditions, statistical significance was tested for using one-way analysis-of-variance (ANOVA) followed by pairwise testing of all treatment groups using the TukeyHSD post-test with R statistical software (R Core Team: R: A language and environment for statistical computing. R Foundation for Statistical Computing, Vienna, Austria 2015, [available on the world wide web at r-project.org/]). In additional experiments, six explants were similarly treated with estrogen or progesterone (2 hours) but in combination with 1 uM U0126 (to inhibit ERKs 1/2) and phospho-Ser294 PR levels were measured by IHC. […]
structure (smiles),measurement,setting,value
CC(=O)[C@H]1CC[C@H]2[C@@H]3CCC4=CC(=O)CC[C@]4(C)[C@H]3CC[C@]12C [progesterone],PR Ser294 phosphorylation in tumor explants,[1],induced robust PR Ser294 phosphorylation
same,percentage of Ki67-positive cells compared to vehicle treatment,[2],significantly higher percentage of Ki67-positive cells

# Reference: patent US10942183B2, “Methods of detecting progesterone receptor and of detecting an expression level” (REGENTS OF THE UNIVERSITY OF MINNESOTA, priority 2017, dated 2021)
